The values below come from PubChem BioAssay AID330 (DTP/NCI, 2004).

Where “and” joins values, the source holds several entries; their conditions need not be identical. Identical values can stand only once. Inconclusive results and toxic doses are left out. Square brackets hold non-standard residues; d marks the D form. Peptide text beside a SMILES is read from it. * marks the point of attachment. ξ: configuration not given here. Cbz = O=C(OCc1ccccc1)*; ξNva = CCCC(N)C(=O)O

The test has as its system P388 leukemia ip, CD2F1 mice, survival T/C. Kind of test: NCI In Vivo Anticancer Drug Screen. Data for tumor model P388 Leukemia (intraperitoneal) in CD2F1 (CDF1) mice. The following applies: endpoint: median survival time, higher = longer survival. In outline: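 Mice carrying the transplanted tumor received test compound or vehicle. Survival was recorded in each group, and the value is the treated-group measurement divided by that of the vehicle-treated control group.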

Where [1] appears, read: dose: 50.0 mg/kg/injection, schedule: Q01DX005 (ip), vehicle: Klucel (hydroxypropylcellulose) (HPC).
The mark [2] stands for this setting: dose: 100.0 mg/kg/injection, schedule: Q01DX005 (ip), vehicle: Klucel (hydroxypropylcellulose) (HPC).
The mark [3] stands for this setting: dose: 200.0 mg/kg/injection, schedule: Q01DX005 (ip), vehicle: Klucel (hydroxypropylcellulose) (HPC).
[4] abbreviates: dose: 50.0 mg/kg/injection, schedule: Q01DX009 (ip), vehicle: Klucel (hydroxypropylcellulose) (HPC).
Setting [5] is: dose: 100.0 mg/kg/injection, schedule: Q01DX009 (ip), vehicle: Klucel (hydroxypropylcellulose) (HPC).
Setting [6] is: dose: 200.0 mg/kg/injection, schedule: Q01DX009 (ip), vehicle: Klucel (hydroxypropylcellulose) (HPC).
Setting [7] is: dose: 12.5 mg/kg/injection, schedule: Q01DX009 (ip), vehicle: saline.
Where [8] appears, read: dose: 50.0 mg/kg/injection, schedule: Q04DX003 (ip), vehicle: saline.
The mark [9] stands for this setting: dose: 60.0 mg/kg/injection, schedule: Q01DX005 (ip), vehicle: saline with Tween-80.
The mark [10] stands for this setting: dose: 120.0 mg/kg/injection, schedule: Q01DX005 (ip), vehicle: saline with Tween-80.
Setting [11] is: dose: 240.0 mg/kg/injection, schedule: Q01DX005 (ip), vehicle: saline with Tween-80.
[12] abbreviates: dose: 50.0 mg/kg/injection, schedule: Q01DX005 (ip), vehicle: saline with Tween-80.
Setting [13] is: dose: 100.0 mg/kg/injection, schedule: Q01DX005 (ip), vehicle: saline with Tween-80.
Setting [14] is: dose: 200.0 mg/kg/injection, schedule: Q01DX005 (ip), vehicle: saline with Tween-80.
Setting [15] is: dose: 50.0 mg/kg/injection, schedule: Q01DX009 (ip), vehicle: saline with Tween-80.
The mark [16] stands for this setting: dose: 100.0 mg/kg/injection, schedule: Q01DX009 (ip), vehicle: saline with Tween-80.
[17] abbreviates: dose: 200.0 mg/kg/injection, schedule: Q01DX009 (ip), vehicle: saline with Tween-80.

`COc1cc(CCN=Cc2cccc(OC)c2O)c([N+](=O)[O-])cc1OC`: the T/C was 93 % of control under setting [1], 93 % of control under setting [2] and 93 % of control under setting [3].

Turning to `CC[C@]12CCCN3CCc4c(n(c5ccccc45)C(=O)C1)[C@@H]32`, the T/C is, setting by setting: under setting [4], 95 % of control; under setting [5], 107 % of control; under setting [6], 91 % of control.

Consider `CN1CCN(c2ncc(S(=O)(=O)Cc3ccc(Cl)cc3)c(N)n2)CC1`, for which the T/C is, setting by setting: (dose: 100.0 mg/kg/injection, schedule: Q01DX001 (ip), vehicle: saline) 95 % of control; (dose: 200.0 mg/kg/injection, schedule: Q01DX001 (ip), vehicle: saline) 98 % of control; (dose: 400.0 mg/kg/injection, schedule: Q01DX001 (ip), vehicle: saline) 98 % of control.

As to `COC1=CC(=O)C2CC=CC3CC(=O)OC1C32C` (stereo not given), the T/C runs as follows: (dose: 100.0 mg/kg/injection, schedule: Q04DX002 (ip), vehicle: Klucel (hydroxypropylcellulose) (HPC)) 100 % of control; (dose: 200.0 mg/kg/injection, schedule: Q04DX002 (ip), vehicle: Klucel (hydroxypropylcellulose) (HPC)) 94 % of control; (dose: 400.0 mg/kg/injection, schedule: Q04DX002 (ip), vehicle: Klucel (hydroxypropylcellulose) (HPC)) 100 % of control.

Consider `Cc1csc(=NCc2cccnc2)n1C`, for which the T/C runs as follows: (dose: 6.25 mg/kg/injection, schedule: Q01DX009 (ip), vehicle: saline) 100 % of control; under setting [7], 107 % of control.

Take `CC(C)(C)CC(C)(C)c1ccc(OCCO)cc1`: the T/C was 91 % of control under setting [8] and 108 % of control (dose: 100.0 mg/kg/injection, schedule: Q04DX003 (ip), vehicle: saline).

As for `NC(N)=NCCCC(N)C(=O)N1CCCC1C(=O)N1CCCC1C(=O)NC(CCCN=C(N)N)C(=O)O` (stereo not given) (H-RPPR-OH; configuration not given here), the T/C (dose: 12.5 mg/kg/injection, schedule: Q01DX005 (ip), vehicle: saline) is 100 % of control; the T/C (dose: 25.0 mg/kg/injection, schedule: Q01DX005 (ip), vehicle: saline) was 105 % of control; the T/C (dose: 50.0 mg/kg/injection, schedule: Q01DX005 (ip), vehicle: saline) is 101 % of control.

Regarding `CC(=O)C(C)(C)Cc1cc(C(C)(C)CC=O)on1`, the T/C reads like this: under setting [9], 107 % of control; under setting [10], 100 % of control; under setting [11], 108 % of control.

Consider `COc1cc(OC)c(N=Cc2ccc(C=Nc3cc(Cl)c(OC)cc3OC)cc2)cc1Cl`, for which the T/C is, setting by setting: under setting [4], 100 % of control; under setting [5], 89 % of control; under setting [6], 86 % of control.

As to `CC12CC3(Nc4ccccc4C3(C)O)OC1(C)c1ccccc1N2` (stereo not given), the T/C runs as follows: under setting [12], 95 % of control; under setting [13], 92 % of control; under setting [14], 92 % of control.

In the case of `CCCC(NC(=O)OCc1ccccc1)C(=O)NCC(N)=O` (stereo not given) (Cbz-[ξNva]-Gly-NH2), the T/C is, setting by setting: under setting [1], 103 % of control; under setting [2], 100 % of control; under setting [3], 100 % of control.

Take `CC(=O)C1(O)Cc2c(O)c3c(c(O)c2C(OC2CC(N)C(O)C(C)O2)C1C)C(=O)c1ccccc1C3=O` (stereo not given): the T/C is 100 % of control (dose: 0.6 mg/kg/injection, schedule: Q04DX003 (ip), vehicle: water); 108 % of control (dose: 1.2 mg/kg/injection, schedule: Q04DX003 (ip), vehicle: water); 108 % of control (dose: 2.4 mg/kg/injection, schedule: Q04DX003 (ip), vehicle: water); 106 % of control (dose: 4.8 mg/kg/injection, schedule: Q04DX003 (ip), vehicle: water); 118 % of control (dose: 9.6 mg/kg/injection, schedule: Q04DX003 (ip), vehicle: water).

Turning to `O=C(Nc1ccc(Br)cc1C(F)(F)F)O/N=C(\c1ccccc1)C(O)c1ccccc1` (stereo not given), the T/C was 101 % of control under setting [15], 96 % of control under setting [16] and 100 % of control under setting [17].

As to `CC(=O)CC(C)(C)c1ccccc1`, the T/C was 106 % of control (dose: 25.0 mg/kg/injection, schedule: Q01DX009 (ip), vehicle: saline with Tween-80); 104 % of control under setting [15]; 107 % of control and 108 % of control under setting [16]; 103 % of control and 116 % of control under setting [17]; 113 % of control and 95 % of control (dose: 400.0 mg/kg/injection, schedule: Q01DX009 (ip), vehicle: saline with Tween-80).

For `O=C1c2ccc(=O)[nH]c2C(=O)C2CC3=C(CCCC3)CC12` (stereo not given), the T/C by setting is: under setting [12], 109 % of control; under setting [13], 97 % of control; under setting [14], 94 % of control.

As for `Cc1cccc(NC(=O)CCC(=O)NS(C)(=O)=O)c1`, the T/C (dose: 100.0 mg/kg/injection, schedule: Q04DX002 (ip), vehicle: saline) was 103 % of control; the T/C (dose: 200.0 mg/kg/injection, schedule: Q04DX002 (ip), vehicle: saline) was 102 % of control; the T/C (dose: 400.0 mg/kg/injection, schedule: Q04DX002 (ip), vehicle: saline) was 100 % of control.

For `O=C(O)C(S)C(S)C(=O)O` (stereo not given), the T/C reads like this: (dose: 12.5 mg/kg/injection, schedule: Q01DX009 (ip), vehicle: other) 102 % of control; (dose: 25.0 mg/kg/injection, schedule: Q01DX009 (ip), vehicle: other) 108 % of control; (dose: 50.0 mg/kg/injection, schedule: Q01DX009 (ip), vehicle: other) 103 % of control; (dose: 100.0 mg/kg/injection, schedule: Q01DX009 (ip), vehicle: other) 94 % of control; (dose: 200.0 mg/kg/injection, schedule: Q01DX009 (ip), vehicle: other) 90 % of control.

In the case of `NC(=O)N/N=C1\CC2C=CC1/C=C\C=C\2` (stereo not given), the T/C by setting is: (dose: 100.0 mg/kg/injection, schedule: Q01DX001 (ip), vehicle: saline with Tween-80) 100 % of control; (dose: 200.0 mg/kg/injection, schedule: Q01DX001 (ip), vehicle: saline with Tween-80) 106 % of control; (dose: 400.0 mg/kg/injection, schedule: Q01DX001 (ip), vehicle: saline with Tween-80) 106 % of control.

As to `c1ccc(CC23CCCCC2N3)cc1` (stereo not given), the T/C is 95 % of control under setting [7]; 90 % of control (dose: 12.5 mg/kg/injection, schedule: Q04DX003 (ip), vehicle: saline); 113 % of control (dose: 25.0 mg/kg/injection, schedule: Q01DX009 (ip), vehicle: saline); 90 % of control (dose: 25.0 mg/kg/injection, schedule: Q04DX003 (ip), vehicle: saline); 100 % of control (dose: 50.0 mg/kg/injection, schedule: Q01DX009 (ip), vehicle: saline); 100 % of control under setting [8].

With `CC(=O)C(=N/O)/C(C)=N/NC(=O)CC#N`, the T/C (dose: 100.0 mg/kg/injection, schedule: Q04DX009 (ip), vehicle: saline) is 101 % of control and the T/C (dose: 200.0 mg/kg/injection, schedule: Q04DX009 (ip), vehicle: saline) is 100 % of control.

`COC(=O)Nc1nc2ccc(C3(c4ccc(F)cc4)OCCO3)cc2[nH]1`: the T/C is, setting by setting: (dose: 25.0 mg/kg/injection, schedule: Q01DX009 (oral), vehicle: saline) 103 % of control; (dose: 50.0 mg/kg/injection, schedule: Q01DX009 (oral), vehicle: saline) 119 % of control; under setting [8], 168 % of control; (dose: 60.0 mg/kg/injection, schedule: Q04DX003 (ip), vehicle: saline) 155 % of control and 192 % of control; (dose: 70.0 mg/kg/injection, schedule: Q04DX003 (ip), vehicle: saline) 208 % of control.

`C/C(=N\NC(=S)N1CCC(c2ccccc2)CC1)c1nccnc1C`: the T/C by setting is: under setting [12], 100 % of control; under setting [13], 102 % of control; under setting [14], 100 % of control.

As for `[N-]=[N+]=NC12CC3CC(CC(C3)C1)C2`, the T/C was 100 % of control under setting [12], 101 % of control under setting [13] and 106 % of control under setting [14].

As to `N#CCCOCNC(=O)NCOCCC#N`, the T/C runs as follows: under setting [9], 96 % of control; under setting [10], 97 % of control; under setting [11], 90 % of control.
